Assay results from US20080119530A1, “Method for treatment and prevention of ultraviolet light induced skin pathologies” (priority 2006, published 2008).

How the values were obtained:
Erbb2 = Erbb2 expression in keratinocytes (immunoblot); type: cell-based, mouse; settings: cultured keratinocytes, AG825
Text: (§1) For some experiments, the epidermis was separated from the skin by the heat shock method before homogenization. Keratinocytes were lysed in the same buffer. Membranes were immunoblotted with antibodies recognizing Erbb2, phospho-Erbb2 (Tyr^1248), EGFR, phospho-EGFR (Tyr^992), phospho-EGFR (Tyr^1173), phosphotyrosine, and Tall (Calbiochem, San Diego, Calif.). Binding of horseradish peroxidase-conjugated secondary antibodies (Cell Signaling, Beverly, Mass.) was visualized using chemiluminescent reagents (Pierce, Rockford, Ill.) and autoradiography. Densitometry was performed using IDScan software (Scanalytics, Fairfax, Va.).
Cell culture. […] Keratinocytes were transfected with Erbb2-targeted siRNA (32), Stealth RNAi Negative Control LO GC (Invitrogen, Carlsbad, Calif.), Cy3-conjugated Label IT RNAi Delivery Control (Mirus, Madison, Wis.) or sham transfection with TransIT-siQUEST Transfection Reagent (Mirus, Madison, Wis.). Plasmids with Cdc25a (Hassepass et al. 2003a) and EGFP (enhanced green fluorescent protein) cDNA were cotransfected with Lipofectamine Transfection Reagent (Invitrogen, Carlsbad, Calif.). Transfection efficiency was quantified by determining the proportion of the cells that incorporated the fluorescent Cy3-conjugated siRNA or GFP one day post-transfection. […]

Tg.AC mice [1] = test: UV-induced epidermal hyperplasia in mouse skin; type: in vivo
Text: Animals. Homozygous v-rasHa transgenic mice on an FVB/N background were used in in vivo experiments. To obtain keratinocytes with genetic ablation of Erbb2, loxP sites were inserted flanking exon 2 of Erbb2 such that splicing from exon1 to downstream introns upon Cre recombinase expression creates a frameshift mutation. Mice were maintained in our animal facility and provided with Purina lab chow (Nestle Purina PetCare, St. Louis, Mo.) and water ad libitum. The dorsal skin was clipped one day before treatment using electric clippers (Wahl, Sterling, II) and shaved on the day of treatment with a Remington Microscreen shaver (Madison, N.C.). […] The Ultraviolet-B TL 40W/12 RS bulbs (Philips, Somerset, N.J.) used emitted approximately 30% UVA, 70% UVB and <1% UVC, with a total output of 470 μW/cm^2, as measured with radiometric photodetector probes (Newport, Irvine, Calif.). For tumor experiments, homozygous Tg.AC mice were treated and exposed twice with an interval of 7 d. Tumor number was counted and tumor volume measured weekly using calipers. Skin-fold thickness was measured using calipers (Mitutoyo, Aurora, Ill.) to lightly pinch the dorsal skin. […]
The influence of Erbb2 on epidermal hyperplasia was measured during the first two weeks of the tumor experiment regimen. […]

Tg.AC mice [2] = test: UV-induced skin tumorigenesis in v-rasHa transgenic Tg.AC mice; type: in vivo, mouse
Text: Animals. Homozygous v-rasHa transgenic mice on an FVB/N background were used in in vivo experiments. To obtain keratinocytes with genetic ablation of Erbb2, loxP sites were inserted flanking exon 2 of Erbb2 such that splicing from exon1 to downstream introns upon Cre recombinase expression creates a frameshift mutation. Mice were maintained in our animal facility and provided with Purina lab chow (Nestle Purina PetCare, St. Louis, Mo.) and water ad libitum. The dorsal skin was clipped one day before treatment using electric clippers (Wahl, Sterling, II) and shaved on the day of treatment with a Remington Microscreen shaver (Madison, N.C.). […] The Ultraviolet-B TL 40W/12 RS bulbs (Philips, Somerset, N.J.) used emitted approximately 30% UVA, 70% UVB and <1% UVC, with a total output of 470 μW/cm^2, as measured with radiometric photodetector probes (Newport, Irvine, Calif.). For tumor experiments, homozygous Tg.AC mice were treated and exposed twice with an interval of 7 d. Tumor number was counted and tumor volume measured weekly using calipers. Skin-fold thickness was measured using calipers (Mitutoyo, Aurora, Ill.) to lightly pinch the dorsal skin. All animal procedures were performed in accordance with American Association of Laboratory Animal Care guidelines and approved by Creighton University's Institutional Animal Care and Use Committee.
Statistical methods. The tumor experiment was analyzed using two-way ANOVA. Statistical significance in other experiments was assessed using two-way ANOVA or Student's t-test with Bonferroni post-test. All experiments, excluding the tumor experiment, were replicated several times and consistent results obtained.
The skin tumorigenesis experiment was performed in v-ras^Ha transgenic Tg.AC mice because of their enhanced sensitivity to UV-induced skin tumorigenesis (13; 52). […] While the vehicle-treated mice continued to accrue tumors throughout the duration of the experiment, the AG825-treated group reached a plateau in tumor number by 7 weeks after the first UV exposure. By the end of the experiment, mean tumor volume was also 70% less in the AG825-treated group when compared to the vehicle control. Representative tumors from each treatment were examined histologically and all were benign squamous papillomas with similar differentiation status.
Upon activation, Erbb2 heterodimerizes with either EGFR or Erbb3 to transduce signals. Support for the hypothesis that Erbb2 increases skin carcinogenesis comes from our investigations of the functions of its dimerization partner EGFR. A tumor study was conducted to assess the role of EGFR in the clonal expansion of transformed cells to form benign tumors in the skin of v-ras^Ha transgenic Tg.AC mice. Inhibition of EGFR with the tyrphostin inhibitor AG1478 decreased the number of tumors that developed by about 50% in UV-exposed v-rasHa transgenic mice. Mean tumor volume was 80% less upon inhibition of EGFR-mediated signaling when compared to, UV-exposed and vehicle-treated controls.

EGFR = test: UV-induced phosphorylation of EGFR; type: cell-based, mouse
Text: as §1
Several methods were developed to regulate Erbb2 expression and activity both in vitro and in vivo.

keratin 5, loricrin = test: Differentiation markers in UV-exposed skin; type: in vivo, mouse; settings: inhibition prior to UV irradiation
[3] = system: platelet-derived growth factor receptor kinase

Structure (SMILES): COc1cc(/C=C(\C#N)C(N)=O)cc(CSc2nc3ccccc3s2)c1O [AG825]
- expression levels of Erbb2 (Erbb2): without altering
- effect on epidermal hyperplasia (Tg.AC mice [1]; first week after UV irradiation): minimal
- epidermal hyperplasia (Tg.AC mice [1]; following the second UV irradiation): significantly suppressed
- tumors per mouse by the end of the experiment (Tg.AC mice [2]; 4 mg AG825 topically 2 h prior to each of two 10 kJ/m^2 UV exposures 7 d apart): 15
- tumor multiplicity decreased (Tg.AC mice [2]; 12 weeks later): more than half
- tumor volume decreased (Tg.AC mice [2]; 12 weeks later): more than half
- time by which tumor number reached a plateau (Tg.AC mice [2]; after the first UV exposure): ≤ 7 weeks
- mean tumor volume less than vehicle control (Tg.AC mice [2]; by the end of the experiment): 70%
- development of tumors blocked (Tg.AC mice [2]; inhibition of Erbb2 prior to UV irradiation, vs vehicle): more than half
- UV-induced carcinogenesis (FIG. 6) (Tg.AC mice [2]; topical treatment 2 h prior to UV irradiation): suppress
- EGFR phosphorylation at Tyr1173 after UV (EGFR): did not block
- UV-induced phosphorylation of EGFR-Tyr992 (EGFR): blocked
- localization or expression of early (keratin 5) or late (loricrin) markers of differentiation (keratin 5, loricrin): did not alter
- fold higher IC50 for platelet-derived growth factor receptor kinase than for Erbb2 [3]: more than 100 fold
